Assays:
Format in all cases: in vivo
[1] = test system: barnyardgrass (Echinochloa crus-galli L.): ECHCG; assay: Test Example 1 pre-emergence herbicidal activity, ECHCG; conditions: visually observed 20th to 23rd day after application
Summary of the method: (§1)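 Seeds sown in upland field soil in pots; one day later compound, formulated as wettable powder or emulsifiable concentrate and diluted with water at 500 L/ha, sprayed pre-emergence at a predetermined active-ingredient rate. Growth control scored visually 20–23 days after application, 0 (untreated-like) to 100 (complete kill) %.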

[2] = test system: crabgrass (Digitaria sanguinalis L.): DIGSA; assay: Test Example 1 pre-emergence herbicidal activity, DIGSA; conditions: visually observed 20th to 23rd day after application
Summary of the method: as §1

[3] = test system: green foxtail (Setaria viridis L.): SETVI; assay: Test Example 1 pre-emergence herbicidal activity, SETVI; conditions: visually observed 20th to 23rd day after application
Summary of the method: as §1

[4] = test system: redroot pigweed (Amaranthus retroflexus L.): AMARE; assay: Test Example 1 pre-emergence herbicidal activity, AMARE; conditions: Rate 63 g a.i./ha, visually observed 20th to 23rd day after application
Summary of the method: as §1

[5] = test system: prickly sida (Sida spinosa L.): SEDSP; assay: Test Example 1 pre-emergence herbicidal activity, SIDSP; conditions: visually observed 20th to 23rd day after application
Summary of the method: as §1

[6] = test system: velvetleaf (Abutilon theophrasti): ABUTH; assay: Test Example 1 pre-emergence herbicidal activity, ABUTH; conditions: visually observed 20th to 23rd day after application
Summary of the method: as §1

[7] = test system: rice (Oryza sativa L.): ORYSA; assay: Test Example 1 pre-emergence herbicidal activity, ORYSA; conditions: visually observed 20th to 23rd day after application
Summary of the method: as §1

[8] = test system: wheat (Triticum aestivum L.): TRZAX; assay: Test Example 1 pre-emergence herbicidal activity, TRZAX; conditions: visually observed 20th to 23rd day after application
Summary of the method: as §1

[9] = test system: corn (Zea mays L.): ZEAMX; assay: Test Example 1 pre-emergence herbicidal activity, ZEAMX; conditions: visually observed 20th to 23rd day after application
Summary of the method: as §1

[10] = test system: soybean (Glycine max Merr.): GLXMA; assay: Test Example 1 pre-emergence herbicidal activity, GLXMA; conditions: visually observed 20th to 23rd day after application
Summary of the method: as §1

[11] = test system: barnyardgrass (Echinochloa crus-galli L.), ECHCG; assay: Test Example 2 post-emergence (foliage treatment) herbicidal activity, ECHCG
Summary of the method: (§2)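 Pot-grown plants in upland soil were sprayed over the foliage at ECHCG 1.1-2.1, DIGSA 1.0-2.0, AMARE 0.1-1.5 and ORYSA 1.0-2 leaf stage. Wettable powder or emulsifiable concentrate was diluted in water at 500 L/ha plus 0.1% (v/v) spreader. Growth control was scored visually 20-23 days later, 0 (untreated) to 100% (complete kill).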

[12] = test system: crabgrass (Digitaria sanguinalis L.), DIGSA; assay: Test Example 2 post-emergence (foliage treatment) herbicidal activity, DIGSA
Summary of the method: as §2

[13] = test system: green foxtail (Setaria viridis L.), SETVI; assay: Test Example 2 post-emergence (foliage treatment) herbicidal activity, SETVI
Summary of the method: (§3)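 Each species was evaluated for growth suppression by eye, 0% matching untreated and 100% meaning death, some 20 to 23 days after a single post-emergence foliar treatment applied in 500 L/ha of water carrying 0.1% (v/v) agricultural spreader.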

[14] = test system: redroot pigweed (Amaranthus retroflexus L.), AMARE; assay: Test Example 2 post-emergence (foliage treatment) herbicidal activity, AMARE
Summary of the method: as §2

[15] = test system: prickly sida (Sida spinosa L.), SIDSP; assay: Test Example 2 post-emergence (foliage treatment) herbicidal activity, SIDSP
Summary of the method: as §3

[16] = test system: velvetleaf (Abutilon theophrasti), ABUTH; assay: Test Example 2 post-emergence (foliage treatment) herbicidal activity, ABUTH
Summary of the method: as §3

[17] = test system: rice (Oryza sativa L.), ORYSA; assay: Test Example 2 post-emergence (foliage treatment) herbicidal activity, ORYSA
Summary of the method: as §2

[18] = test system: wheat (Triticum aestivum L.), TRZAX; assay: Test Example 2 post-emergence (foliage treatment) herbicidal activity, TRZAX
Summary of the method: as §3

[19] = test system: corn (Zea mays L.), ZEAMX; assay: Test Example 2 post-emergence (foliage treatment) herbicidal activity, ZEAMX
Summary of the method: as §3

[20] = test system: soybean (Glycine max Merr.), GLXMA; assay: Test Example 2 post-emergence (foliage treatment) herbicidal activity, GLXMA
Summary of the method: as §3

[21] = test system: barnyardgrass (Echinochiloa oryzicola: ECHOR); assay: Test Example 3 water application herbicidal activity (paddy), ECHOR; conditions: 63 g a.i./ha, water application under submerged condition at 0.5 leaf stage, visually observed 14th day after application; 0 = untreated control, 100 = complete kill
Summary of the method: (§4)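 Compound, as diluted wettable powder or emulsifiable concentrate, was pipetted into flood water at a set active-ingredient dose. Weeds were treated at 0.5-leaf stage after sowing or tuber planting; 2-leaf rice 4 days post-transplant. Control scored visually, 0 untreated to 100 complete kill, weeds day 14, rice day 21.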

[22] = test system: japanese bulrush (Scirpus juncoides: SCPJO); assay: Test Example 3 water application herbicidal activity (paddy), SCPJO; conditions: 63 g a.i./ha, water application under submerged condition at 0.5 leaf stage, visually observed 14th day after application; 0 = untreated control, 100 = complete kill
Summary of the method: as §4

[23] = test system: japanese ribbon wapato (Sagittaria pygmaea: SA GPY); assay: Test Example 3 water application herbicidal activity (paddy), SAGPY; conditions: 63 g a.i./ha, water application under submerged condition, tubers planted, visually observed 14th day after application; 0 = untreated control, 100 = complete kill
Summary of the method: as §4

[24] = test system: rice (Oryza sativa L.: ORYSA); assay: Test Example 3 water application herbicidal activity (paddy), transplanted rice ORYSA; conditions: 63 g a.i./ha, water application 4th day after transplantation of 2 leaf stage rice, visually observed 21st day after application; 0 = untreated control, 100 = complete kill
Text: Paddy field soil was put into a 1/1,000,000 ha pot and seeds of barnyardgrass (Echinochiloa oryzicola: ECHOR) and japanese bulrush (Scirpus juncoides: SCPJO) were sown and slightly covered with soil. Then the pot was left to stand still in a greenhouse in a state where the depth of flooding water was from 0.5 to 1 cm, and one day later, tubers of japanese ribbon wapato (Sagittaria pygmaea: SA GPY) were planted. Thereafter, the depth of flooding water was maintained at a level of from 3 to 4 cm, and when barnyardgrass and japanese bulrush reached a 0.5 leaf stage, an aqueous diluted solution of a wettable powder or emulsifiable concentrate having the compound of the present invention formulated in accordance with a usual formulation method, was uniformly applied under submerged condition by a pipette so that the dose of the active ingredient would be at a predetermined level. On the other hand, paddy filed soil was put into a 1/1,000,000 ha pot and puddled and leveled, and the depth of flooding water was from 3 to 4 cm. One day later, rice (Oryza sativa L.: ORYSA) of 2 leaf stage was transplanted in a depth of 3 cm. On the 4th day after the transplantation, the compound of the present invention was applied in the same manner as described above. On the 14th day after the application of the herbicide, the growth of barnyardgrass, japanese burlush and japanese ribbon wapato was visually observed and on the 21st day after the application of the herbicide, the growth of rice was visually observed, and the herbicidal effects were evaluated by growth controlling degrees (%) ranging from 0 (equivalent to the untreated control) to 100 (complete kill), whereby the results shown in Table 6, were obtained. Compound Nos. in Table 6 correspond to Compound Nos. in Table 1 and 2 given hereinbefore.

| Compound | growth controlling degree, ECHCO ([11]; 63 g a.i./ha) [%] | growth controlling degree, DIGSP ([12]; 63 g a.i./ha) [%] | growth controlling degree, SETVI ([13]; 63 g a.i./ha) [%] | growth controlling degree, AMARE ([14]; 63 g a.i./ha) [%] | growth controlling degree, SIDSP ([15]; 63 g a.i./ha) [%] | growth controlling degree, ABUTH ([16]; 63 g a.i./ha) [%] | growth controlling degree, ORYSA ([17]; 63 g a.i./ha) [%] | growth controlling degree, TRZAX ([18]; 63 g a.i./ha) [%] | growth controlling degree, ZEAMX ([19]; 63 g a.i./ha) [%] | growth controlling degree, GLXMA ([20]; 63 g a.i./ha) [%] | growth controlling degrees (%) ECHOR [21] [%] | growth controlling degrees (%) SCPJO [22] [%] | growth controlling degrees (%) SAGPY [23] [%] | growth controlling degrees (%) ORYSA [24] [%] | also measured |
| --- | --- | --- | --- | --- | --- | --- | --- | --- | --- | --- | --- | --- | --- | --- | --- |
| COc1c(Cl)cc(F)c(-c2nn(C)c(OC(F)F)c2Cl)c1NC(=O)C(C)C [Compound 1-3] | 70 | 95 | 100 | 100 | 100 | 100 | 80 | 40 | 70 | 80 | 100 | 98 | 100 | 80 | Pre-emergence Herbicidal Activity ECHCG (growth controlling degree) ([1]; Rate 63 g a.i./ha): 100%; Pre-emergence Herbicidal Activity DIGSP (growth controlling degree) ([2]; Rate 63 g a.i./ha): 100%; Pre-emergence Herbicidal Activity SETVI (growth controlling degree) ([3]; Rate 63 g a.i./ha): 100%; Pre-emergence Herbicidal Activity AMARE (growth controlling degree) [4]: 100%; Pre-emergence Herbicidal Activity SIDSP (growth controlling degree) ([5]; Rate 63 g a.i./ha): 100%; Pre-emergence Herbicidal Activity ABUTH (growth controlling degree) ([6]; Rate 63 g a.i./ha): 100%; Pre-emergence Herbicidal Activity ORYSA (growth controlling degree) ([7]; Rate 63 g a.i./ha): 80%; Pre-emergence Herbicidal Activity TRZAX (growth controlling degree) ([8]; Rate 63 g a.i./ha): 40%; Pre-emergence Herbicidal Activity ZEAMX (growth controlling degree) ([9]; Rate 63 g a.i./ha): 50%; Pre-emergence Herbicidal Activity GLXMA (growth controlling degree) ([10]; Rate 63 g a.i./ha): 20% |
| CCOC(=O)CN(C=O)c1c(OC)c(Cl)cc(F)c1-c1nn(C)c(OC(F)F)c1Cl [Compound 1-19] | 30 | 30 | 30 | 100 | 90 | 90 | 20 | 10 | 0 | 60 | 70 | 30 | 20 | 30 | Pre-emergence Herbicidal Activity ECHCG (growth controlling degree) ([1]; Rate 125 g a.i./ha): 0%; Pre-emergence Herbicidal Activity DIGSP (growth controlling degree) ([2]; Rate 125 g a.i./ha): 50%; Pre-emergence Herbicidal Activity SETVI (growth controlling degree) ([3]; Rate 125 g a.i./ha): 10%; Pre-emergence Herbicidal Activity SIDSP (growth controlling degree) ([5]; Rate 125 g a.i./ha): 50%; Pre-emergence Herbicidal Activity ABUTH (growth controlling degree) ([6]; Rate 125 g a.i./ha): 20%; Pre-emergence Herbicidal Activity ORYSA (growth controlling degree) ([7]; Rate 125 g a.i./ha): 0%; Pre-emergence Herbicidal Activity TRZAX (growth controlling degree) ([8]; Rate 125 g a.i./ha): 0%; Pre-emergence Herbicidal Activity ZEAMX (growth controlling degree) ([9]; Rate 125 g a.i./ha): 20%; Pre-emergence Herbicidal Activity GLXMA (growth controlling degree) ([10]; Rate 125 g a.i./ha): 0% |
| COc1c(Cl)cc(F)c(-c2nn(C)c(OC(F)F)c2Cl)c1[N+](=O)[O-] [Compound 2-21, 4-chloro-3-(4-chloro-6-fluoro-3-methoxy-2-nitrophenyl)-5-(difluoromethoxy)-1-methyl-1H-pyrazole] |  |  |  |  |  |  |  |  |  |  | 100 | 98 | 100 | 40 | growth controlling degree, ECHCO ([11]; 31 g a.i./ha): 100%; growth controlling degree, DIGSP ([12]; 31 g a.i./ha): 95%; growth controlling degree, SETVI ([13]; 31 g a.i./ha): 100%; growth controlling degree, AMARE ([14]; 31 g a.i./ha): 100%; growth controlling degree, SIDSP ([15]; 31 g a.i./ha): 100%; growth controlling degree, ABUTH ([16]; 31 g a.i./ha): 100%; growth controlling degree, ORYSA ([17]; 31 g a.i./ha): 90%; growth controlling degree, TRZAX ([18]; 31 g a.i./ha): 40%; growth controlling degree, ZEAMX ([19]; 31 g a.i./ha): 80%; growth controlling degree, GLXMA ([20]; 31 g a.i./ha): 90% |

From patent US20050245399A1, “Pyrazole derivatives as herbicidal compositions containing them” (ISHIHARA SANGYO KAISHA, LTD., priority 2004, published 2005)
